What all share (assay type): functional, organism-based
Experiment [1] concerns Saccharomyces cerevisiae. The experiment in a line: Growth arrest against Saccharomyces cerevisiae LM102 assessed as zone of inhibition after overnight incubation.
In experiment [2] the test system is Saccharomyces cerevisiae. Description: Growth arrest against Saccharomyces cerevisiae RC757 assessed as zone of inhibition after overnight incubation.
In experiment [3] the test system is Saccharomyces cerevisiae. Description: Growth arrest against Saccharomyces cerevisiae RC757 assessed as zone of inhibition at 0.25 ng after overnight incubation.
The subject of experiment [4] is Saccharomyces cerevisiae. Description: Growth arrest against Saccharomyces cerevisiae RC757 assessed as zone of inhibition at 0.50 ng after overnight incubation.

The structures appear in SMILES notation. Activity calls are given as the source filed them. The rule behind the calls is not given here. Where a SMILES comes first, the peptide text is derived from it. The star is where a group is joined. X3 = C/C(=C/C*)CC/C=C(\C)COCc1cccc(C(=O)c2ccccc2)c1; X2 = C/C(=C/C*)COCc1cccc(C(=O)c2ccccc2)c1; X1 = CC(C)=CCC/C(C)=C/CC/C(C)=C\C*

For the compound `CC[C@H](C)[C@H](NC(=O)[C@@H](NC(=O)[C@@H](N)Cc1ccc(O)cc1)[C@@H](C)CC)C(=O)N[C@@H](CCCCN)C(=O)NCC(=O)N[C@H](C(=O)N[C@@H](Cc1ccccc1)C(=O)N[C@@H](Cc1c[nH]c2ccccc12)C(=O)N[C@@H](CC(=O)O)C(=O)N1CCC[C@H]1C(=O)N[C@@H](C)C(=O)N[C@@H](CSC/C=C(/C)CC/C=C(\C)CCC=C(C)C)C(=O)OC)C(C)C` (H-YIIKGVFWDPAC(X1)-OMe), the “inhibition zone (IZ)” value with Saccharomyces cerevisiae [1] is “inactive”. Besides, the “inhibition zone (IZ)” value in the experiment with Saccharomyces cerevisiae [2] was “Active”.

In the case of `CC[C@H](C)[C@H](NC(=O)[C@@H](NC(=O)[C@@H](N)Cc1ccc(O)cc1)[C@@H](C)CC)C(=O)N[C@@H](CCCCN)C(=O)NCC(=O)N[C@H](C(=O)N[C@@H](Cc1ccccc1)C(=O)N[C@@H](Cc1c[nH]c2ccccc12)C(=O)N[C@@H](CC(=O)O)C(=O)N1CCC[C@H]1C(=O)N[C@@H](C)C(=O)N[C@@H](CSC/C=C(/C)COCc1cccc(C(=O)c2ccccc2)c1)C(=O)OC)C(C)C` (H-YIIKGVFWDPAC(X2)-OMe), the “inhibition zone (IZ)” value with Saccharomyces cerevisiae [3] is “Active”.

As to `CC[C@H](C)[C@H](NC(=O)[C@@H](NC(=O)[C@@H](N)Cc1ccc(O)cc1)[C@@H](C)CC)C(=O)N[C@@H](CCCCN)C(=O)NCC(=O)N[C@H](C(=O)N[C@@H](Cc1ccccc1)C(=O)N[C@@H](Cc1c[nH]c2ccccc12)C(=O)N[C@@H](CC(=O)O)C(=O)N1CCC[C@H]1C(=O)N[C@@H](C)C(=O)N[C@@H](CSC/C=C(/C)CC/C=C(\C)COCc1cccc(C(=O)c2ccccc2)c1)C(=O)OC)C(C)C` (H-YIIKGVFWDPAC(X3)-OMe), in the experiment with Saccharomyces cerevisiae [4], the “inhibition zone (IZ)” value is “Active”.
